Test results from patent US20180214583A1, “PHARMACEUTICAL COMBINATION FOR THE TREATMENT OF CANCER” (BAYER PHARMA AKTIENGESELLSCHAFT, priority 2015, published 2018).

Key:
[1] = tested on: bone metastatic prostate tumors; test: Radium-223 with anti-PD-L1 immunotherapy in bone metastatic prostate cancer mice models; type: in vivo
Description: PD-L1 expression after Ra-223 treatment, and blocking PD-L1 combined with Ra-223 as a treatment for bone metastatic prostate cancer is examined in bone metastatic prostate cancer mice models.
The safety and efficacy of Ra-223 combined with anti-PD-L1 antibody versus Ra-223 or […] alone and radiation therapy as controls are tested. A genetically engineered mouse model (Pten/Smad4-null FVB mice, Ding et al., Nature 2011) is used. Treatments are initiated in mice with established tumors. The goal here is to evaluate treatment efficacy. At the experimental endpoint, tumor volume, metastatic burden (lung and liver) and mouse survival is measured.

[2] = single dose 250 kBq per kg body weight; cited from earlier work
[3] = tested on: diffuse large B-cell lymphoma (DLBCL); settings: cited from earlier work

| Compound | PD-L1 expression after treatment [1] | cases of grade 3 neutropenia [2] | observed adverse reactions [2] | subjects progression-free at the end of the follow-up period ([3]; DLBCL subjects after autologous stem cell transplantation, preliminary results, control group 47%) [%] | subjects alive ([3]; DLBCL subjects after autologous stem cell transplantation, preliminary results, control group 62%) [%] | effect on natural killer cells ([3]; phase II trial) |
| --- | --- | --- | --- | --- | --- | --- |
| [Cl][223Ra][Cl] [radium-223, radium-223 dichloride] | upregulates PD-L1 expression | 1/5 | diarrhea and reversible myelosuppression |  |  |  |
| CT-011: humanized IgG 1 monoclonal antibody against PD-1 |  |  |  | 70 | 82 | augments the activity of natural killer cells |
